Several values for one entry are separate records, joined by “and”; a condition that tells them apart may be missing. Equal values may be shown once.
Legend:
beta amyloid production = assay: Repressor Release Assay (RRA); type: cell-based; settings: for fold induction at 3 µg/mL / fold induction at 10 µg/mL / APPI Fold Increase: luciferase activity over diluent control; for fold induction at 3 µg/mL / fold induction at 10 µg/mL: read-out: APPI Fold Increase; for APPI % of Example #98: relative to Example 98
Outline: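 CHO-K1 cells transiently co-transfected with pRSVO-luc and an APP-lacI construct, replated, then treated in duplicate for 36-48 h at 37 °C, 5% CO2. Compounds diluted in 25 mM Hepes, with Hepes/1% DMSO as diluent control. Luciferase read-out in relative light units; toxicity scored 1 non-toxic, 0 toxic.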

CHO-K1 cells = assay: Toxicity in RRA (loss of luciferase signal); settings: toxicity = loss of signal (<0.75 fold increase)
Procedure: The beta amyloid inhibitory activity of the compounds of the present invention was determined using the Repressor Release Assay (RRA).
“Fold Increase” refers to the amount of luciferase activity (measured in relative light units) over diluent control. “SEM” refers to the standard error of the mean for fold increase.

Compound: CC[C@H](C)[C@H](NS(=O)(=O)c1ccc(F)cc1)C(C)O (stereo partly drawn) [Example 126, 4-fluoro-N-[(1S,2S)-1-(1-hydroxyethyl)-2-methylbutyl]benzenesulfonamide]
- fold induction at 3 µg/mL (beta amyloid production; Conc 3 μg/ml): 1.54
- fold induction at 10 µg/mL (beta amyloid production; Conc 10 μg/ml): 1.52
- (%)APPI Toxicity (CHO-K1 cells; Conc 3 μg/ml): 1 (1=non-toxic)
- (%)APPI Toxicity (CHO-K1 cells; Conc 10 μg/ml): 1 (1=non-toxic)

Compound: CC[C@H](C)[C@H](NS(=O)(=O)c1ccc(F)cc1)C(O)C1CCCC1 (stereo partly drawn) [Example 127, N-{(1S,2S)-1-[cyclopentyl(hydroxy)methyl]-2-methylbutyl}-4-fluorobenzenesulfonamide]
- fold induction at 10 µg/mL (beta amyloid production; Conc 10 μg/ml): 2.97
- (%)APPI Toxicity (CHO-K1 cells; Conc 10 μg/ml): 1 (1=non-toxic)

Compound: CCCCC(O)[C@@H](NS(=O)(=O)c1ccc(F)cc1)[C@@H](C)CC (stereo partly drawn) [Example 130, 4-fluoro-N-{(1S)-2-hydroxy-1-[(1S)-1-methylpropyl]hexyl}benzenesulfonamide]
- fold induction at 10 µg/mL (beta amyloid production; Conc 10 μg/ml): 2.4
- (%)APPI Toxicity (CHO-K1 cells; Conc 10 μg/ml): 1 (1=non-toxic)

Compound: CC[C@H](C)[C@H](NS(=O)(=O)c1ccc(F)cc1)C(O)c1ccccc1C (stereo partly drawn) [Example 131, 4-fluoro-N{(1S,2S)-1-[hydroxy-(2-methylphenyl)methyl]-2-methylbutyl}benzenesulfonamide]
- APPI Fold Increase (beta amyloid production; Conc 10 μg/ml): 1.65 fold
- APPI % of Example #98 (beta amyloid production; Conc 10 μg/ml): 64.57%
- (%)APPI Toxicity (CHO-K1 cells; Conc 10 μg/ml): 1 (1=non-toxic)

Compound: CC[C@H](C)[C@H](NS(=O)(=O)c1ccc(F)cc1)C(O)C(C)(C)C (stereo partly drawn) [Example 132, 4-fluoro-N-{(1S)-2-hydroxy-3,3-dimethyl-1-[(1S)-1-methylpropyl]butyl}benzenesulfonamide]
- fold induction at 10 µg/mL (beta amyloid production; Conc 10 μg/ml): 1.54
- (%)APPI Toxicity (CHO-K1 cells; Conc 10 μg/ml): 1 (1=non-toxic)

Compound: C=CC(O)[C@@H](NS(=O)(=O)c1ccc(F)cc1)[C@@H](C)CC (stereo partly drawn) [Example 133, 4-fluoro-N-{(1S)-2-hydroxy-1-[(1S)-1-methylpropyl]-3-butenyl}benzenesulfonamide]
- fold induction at 10 µg/mL (beta amyloid production; Conc 10 μg/ml): 1.79
- (%)APPI Toxicity (CHO-K1 cells; Conc 10 μg/ml): 1 (1=non-toxic)

Compound: C=CCC(O)[C@@H](NS(=O)(=O)c1ccc(F)cc1)[C@@H](C)CC (stereo partly drawn) [Example 134, 4-fluoro-N-{(1S)-2-hydroxy-1-[(1S)-1-methylpropyl]-4-pentenyl}benzenesulfonamide]
- fold induction at 3 µg/mL (beta amyloid production; Conc 3 μg/ml): 1.5
- fold induction at 10 µg/mL (beta amyloid production; Conc 10 μg/ml): 3
- (%)APPI Toxicity (CHO-K1 cells; Conc 3 μg/ml): 1 (1=non-toxic)
- (%)APPI Toxicity (CHO-K1 cells; Conc 10 μg/ml): 1 (1=non-toxic)

Compound: CCC(O)[C@@H](NS(=O)(=O)c1ccc(F)cc1)[C@@H](C)CC (stereo partly drawn) [Example 135, 4-fluoro-N-{(1S)-2-hydroxy-1-[(1S)-1-methylpropyl]butyl}benzenesulfonamide]
- fold induction at 10 µg/mL (beta amyloid production; Conc 10 μg/ml): 1.91
- (%)APPI Toxicity (CHO-K1 cells; Conc 10 μg/ml): 1 (1=non-toxic)

Compound: CC[C@H](C)[C@H](NS(=O)(=O)c1ccc(F)cc1)C(O)c1ccc(Cl)cc1 (stereo partly drawn) [Example 136, N-{(1S,2S)-1-[(4-chlorophenyl)(hydroxy)methyl]-2-methylbutyl}-4-fluorobenzenesulfonamide]
- fold induction at 10 µg/mL (beta amyloid production; Conc 10 μg/ml): 3.04
- (%)APPI Toxicity (CHO-K1 cells; Conc 10 μg/ml): 1 (1=non-toxic)

Compound: CC[C@H](C)[C@H](NS(=O)(=O)c1ccc(F)cc1)C(O)C=C(C)C (stereo partly drawn) [Example 137, 4-fluoro-N-{(1S)-2-hydroxy-4-methyl 1-[(1S)-1-methylpropyl]-3-pentenyl}benzenesulfonamide]
- fold induction at 10 µg/mL (beta amyloid production; Conc 10 μg/ml): 1.61
- (%)APPI Toxicity (CHO-K1 cells; Conc 10 μg/ml): 1 (1=non-toxic)

Compound: C=C(C)C(O)[C@@H](NS(=O)(=O)c1ccc(F)cc1)[C@@H](C)CC (stereo partly drawn) [Example 138, 4-fluoro-N-{(1S)-2-hydroxy-3-methyl-1-[(1S)-1-methylpropyl]-3-butenyl}benzenesulfonamide]
- fold induction at 10 µg/mL (beta amyloid production; Conc 10 μg/ml): 1.57
- (%)APPI Toxicity (CHO-K1 cells; Conc 10 μg/ml): 1 (1=non-toxic)

Compound: CC[C@H](C)[C@H](NS(=O)(=O)c1ccc(F)cc1)C(O)c1ccc(OC)cc1 (stereo partly drawn) [Example 139, 4-fluoro-N-{(1S,2S)-1-[hydroxy(4-methoxyphenyl)methyl]-2-methylbutyl}benzenesulfonamide]
- fold induction at 10 µg/mL (beta amyloid production; Conc 10 μg/ml): 2.12
- (%)APPI Toxicity (CHO-K1 cells; Conc 10 μg/ml): 1 (1=non-toxic)

Compound: CC[C@H](C)[C@H](NS(=O)(=O)c1ccc(F)cc1)C(O)CCC1OCCCO1 (stereo partly drawn) [Example 140, N-{(1S)-4-(1,3-dioxan-2-yl)-2-hydroxy-1-[(1S)-1-methylpropyl]butyl}-4-fluorobenzenesulfonamide]
- fold induction at 10 µg/mL (beta amyloid production; Conc 10 μg/ml): 1.52
- (%)APPI Toxicity (CHO-K1 cells; Conc 10 μg/ml): 1 (1=non-toxic)

Compound: C=CCCC(O)[C@@H](NS(=O)(=O)c1ccc(F)cc1)[C@@H](C)CC (stereo partly drawn) [Example 141, 4-fluoro-N-{(1S)-2-hydroxy-1-[(1S)-1-methylpropyl]-5-hexenyl}benzenesulfonamide]
- fold induction at 10 µg/mL (beta amyloid production; Conc 10 μg/ml): 1.79
- (%)APPI Toxicity (CHO-K1 cells; Conc 10 μg/ml): 1 (1=non-toxic)

Compound: CC[C@H](C)[C@H](NS(=O)(=O)c1ccc(F)cc1)C(O)c1ccc(SC)cc1 (stereo partly drawn) [Example 142, 4-fluoro-N-((1S,2 S)-1-{hydroxy[4-(methylsulfanyl)phenyl]methyl}-2-methylbutyl)benzenesulfonamide]
- fold induction at 10 µg/mL (beta amyloid production; Conc 10 μg/ml): 2.71
- (%)APPI Toxicity (CHO-K1 cells; Conc 10 μg/ml): 1 (1=non-toxic)

Compound: CC[C@H](C)[C@H](NS(=O)(=O)c1ccc(F)cc1)C(O)c1ccc(N(C)C)cc1 (stereo partly drawn) [Example 143, N-{(1S,2S)-1-[[4-(dimethylamino)phenyl](hydroxy)methyl]-2-methylbutyl}-4-fluorobenzenesulfonamide]
- fold induction at 10 µg/mL (beta amyloid production; Conc 10 μg/ml): 5.72
- (%)APPI Toxicity (CHO-K1 cells; Conc 10 μg/ml): 1 (1=non-toxic)

Compound: CC[C@H](C)[C@H](NS(=O)(=O)c1ccc(F)cc1)C(O)c1cccc2ccccc12 (stereo partly drawn) [Example 144, 4-fluoro-N-{(1S,2S)-1-[hydroxy(1-naphthyl)methyl]-2-methylbutyl}benzenesulfonamide]
- fold induction at 10 µg/mL (beta amyloid production; Conc 10 μg/ml): 1.69
- (%)APPI Toxicity (CHO-K1 cells; Conc 10 μg/ml): 1 (1=non-toxic)

Compound: CC[C@H](C)[C@H](NS(=O)(=O)c1ccc(Br)cc1)C(C)O (stereo partly drawn) [Example 145, 4-bromo-N-[(1S,2S)-1-(1-hydroxyethyl)-2-methylbutyl]benzenesulfonamide]
- fold induction at 10 µg/mL (beta amyloid production; Conc 10 μg/ml): 3.9
- (%)APPI Toxicity (CHO-K1 cells; Conc 10 μg/ml): 1 (1=non-toxic)

Compound: CC[C@H](C)[C@H](NS(=O)(=O)c1ccc(Br)cc1)C(O)C1CCCC1 (stereo partly drawn) [Example 146, 4-bromo-N-1-{(1S,2S)-1-[cyclopentyl(hydroxy)methyl]-2-methylbutyl}benzenesulfonamide]
- APPI Fold Increase (beta amyloid production; Conc 3 μg/ml): 1.53 fold
- APPI % of Example #98 (beta amyloid production; Conc 3 μg/ml): 60.66%
- APPI Fold Increase (beta amyloid production; Conc 10 μg/ml): 4.26 fold and 2.33 fold
- APPI % of Example #98 (beta amyloid production; Conc 10 μg/ml): 166.6% and 92.64%
- (%)APPI Toxicity (CHO-K1 cells; Conc 3 μg/ml): 1 (1=non-toxic)
- (%)APPI Toxicity (CHO-K1 cells; Conc 10 μg/ml): 1 (1=non-toxic)

Compound: CCCCCC(O)[C@@H](NS(=O)(=O)c1ccc(Br)cc1)[C@@H](C)CC (stereo partly drawn) [Example 147, 4-bromo-N-{(1S)-2-hydroxy-1-[(1S)-1-methylpropyl]heptyl}benzenesulfonamide]
- fold induction at 10 µg/mL (beta amyloid production; Conc 10 μg/ml): 1.94
- (%)APPI Toxicity (CHO-K1 cells; Conc 10 μg/ml): 1 (1=non-toxic)

Compound: CCCCC(O)[C@@H](NS(=O)(=O)c1ccc(Br)cc1)[C@@H](C)CC (stereo partly drawn) [Example 148, 4-bromo-N-{(1S)-2-hydroxy-1-[(1S)-1-methylpropyl]hexyl}benzenesulfonamide]
- fold induction at 10 µg/mL (beta amyloid production; Conc 10 μg/ml): 1.88
- (%)APPI Toxicity (CHO-K1 cells; Conc 10 μg/ml): 1 (1=non-toxic)

Compound: C=CC(O)[C@@H](NS(=O)(=O)c1ccc(Br)cc1)[C@@H](C)CC (stereo partly drawn) [Example 151, 4-bromo-N-{(1S)-2-hydroxy-1-[(1S)-1-methylpropyl]-3-butenyl}benzenesulfonamide]
- fold induction at 10 µg/mL (beta amyloid production; Conc 10 μg/ml): 2.9
- (%)APPI Toxicity (CHO-K1 cells; Conc 10 μg/ml): 1 (1=non-toxic)

Compound: C=CCC(O)[C@@H](NS(=O)(=O)c1ccc(Br)cc1)[C@@H](C)CC (stereo partly drawn) [Example 152, 4-bromo-N-{(1S)-2-hydroxy-1-[(1S)-1-methylpropyl]-4-pentenyl}benzenesulfonamide]
- fold induction at 3 µg/mL (beta amyloid production; Conc 3 μg/ml): 1.6
- fold induction at 10 µg/mL (beta amyloid production; Conc 10 μg/ml): 6.64
- (%)APPI Toxicity (CHO-K1 cells; Conc 3 μg/ml): 1 (1=non-toxic)
- (%)APPI Toxicity (CHO-K1 cells; Conc 10 μg/ml): 1 (1=non-toxic)

Compound: CCC(O)[C@@H](NS(=O)(=O)c1ccc(Br)cc1)[C@@H](C)CC (stereo partly drawn) [Example 153, 4-bromo-N-{(1S)-2-hydroxy-1-[(1S)-1-methylpropyl]butyl}benzenesulfonamide]
- fold induction at 3 µg/mL (beta amyloid production; Conc 3 μg/ml): 2
- fold induction at 10 µg/mL (beta amyloid production; Conc 10 μg/ml): 4.77
- (%)APPI Toxicity (CHO-K1 cells; Conc 3 μg/ml): 1 (1=non-toxic)
- (%)APPI Toxicity (CHO-K1 cells; Conc 10 μg/ml): 1 (1=non-toxic)

Compound: CC[C@H](C)[C@H](NS(=O)(=O)c1ccc(Br)cc1)C(O)c1ccc(F)cc1 (stereo partly drawn) [Example 154, 4-bromo-N-{(1S,2S)-1-[(4-fluorophenyl) (hydroxy)methyl]-2-methylbutyl}benzenesulfonamide]
- fold induction at 10 µg/mL (beta amyloid production; Conc 10 μg/ml): 1.68
- (%)APPI Toxicity (CHO-K1 cells; Conc 10 μg/ml): 1 (1=non-toxic)

Compound: CC[C@H](C)[C@H](NS(=O)(=O)c1ccc(Br)cc1)C(O)c1ccc(Cl)cc1 (stereo partly drawn) [Example 155, 4-bromo-N-{(1S,2S)-1-[(4-chlorophenyl)(hydroxy)methyl]-2-methylbutyl}benzenesulfonamide]
- fold induction at 10 µg/mL (beta amyloid production; Conc 10 μg/ml): 4.37
- (%)APPI Toxicity (CHO-K1 cells; Conc 10 μg/ml): 1 (1=non-toxic)

Compound: CC[C@H](C)[C@H](NS(=O)(=O)c1ccc(Br)cc1)C(O)C=C(C)C (stereo partly drawn) [Example 156, 4-bromo-N-{(1S)-2-hydroxy-4-methyl-1-[(1S)-1-methylpropyl]-3-pentenyl}benzenesulfonamide]
- fold induction at 3 µg/mL (beta amyloid production; Conc 3 μg/ml): 1.52
- fold induction at 10 µg/mL (beta amyloid production; Conc 10 μg/ml): 2.01
- (%)APPI Toxicity (CHO-K1 cells; Conc 3 μg/ml): 1 (1=non-toxic)
- (%)APPI Toxicity (CHO-K1 cells; Conc 10 μg/ml): 1 (1=non-toxic)

Compound: C=C(C)C(O)[C@@H](NS(=O)(=O)c1ccc(Br)cc1)[C@@H](C)CC (stereo partly drawn) [Example 157, 4-bromo-N-{(1S)-2-hydroxy-3-methyl-1-[(1S)-1-methylpropyl]-3-butenyl}benzenesulfonamide]
- fold induction at 10 µg/mL (beta amyloid production; Conc 10 μg/ml): 1.96
- (%)APPI Toxicity (CHO-K1 cells; Conc 10 μg/ml): 1 (1=non-toxic)

Compound: CC[C@H](C)[C@H](NS(=O)(=O)c1ccc(Br)cc1)C(O)c1ccc(OC)cc1 (stereo partly drawn) [Example 158, 4-bromo-N-{(11 S,2S)-1-[hydroxy(4-methoxyphenyl)methyl]-2-methylbutyl}benzenesulfonamide]
- APPI Fold Increase (beta amyloid production; Conc 10 μg/ml): 2.28 fold
- APPI % of Example #98 (beta amyloid production; Conc 10 μg/ml): 101.49%
- (%)APPI Toxicity (CHO-K1 cells; Conc 10 μg/ml): 1 (1=non-toxic)

Compound: C/C=C(\C)C(O)[C@@H](NS(=O)(=O)c1ccc(Br)cc1)[C@@H](C)CC (stereo partly drawn) [Example 159, 4-bromo-N-{(1S,3E)-2-hydroxy-3-methyl-1-[(1S)-1-methylpropyl]-3-pentenyl}benzenesulfonamide]
- fold induction at 10 µg/mL (beta amyloid production; Conc 10 μg/ml): 2.11
- (%)APPI Toxicity (CHO-K1 cells; Conc 10 μg/ml): 1 (1=non-toxic)

Source: US7166622B2, “Substituted phenylsulfonamide inhibitors of beta amyloid production” (Wyeth, priority 2002, dated 2007)
